# From the supplement of paper PMC10307832
# Experiments:
# Test in all cases: relative viability (nuclei count vs DMSO), 5 days (fraction); higher = more cells survive
# [1] = compound: CC1=CC=C(C=C1)C(=O)CN2C3=C(CCCC3)SC2=N [Pifithrin_alpha] + CCNC(=O)c1noc(-c2cc(C(C)C)c(O)cc2O)c1-c1ccc(CN2CCOCC2)cc1 [Luminespib] (partner 0.01 µM)
# Summary of the method: (§1)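 Dosing by pin tool came one day after lung cancer cell lines were seeded in 1536-well plates, using either one drug or a fixed anchor-drug dose plus five library-drug doses (not always all listed) in √10 steps. After 5 days, nuclei were counted on 4× images. Relative viability is treated-well nuclei count divided by vehicle-well nuclei count, and values are medians of duplicate plates.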
# Bemcentinib + Alpelisib = compound: Nc1nc(Nc2ccc3c(c2)CC[C@@H](N2CCCC2)CC3)nn1-c1cc2c(nn1)-c1ccccc1CCC2 [Bemcentinib] + Cc1nc(NC(=O)N2CCC[C@H]2C(N)=O)sc1-c1ccnc(C(C)(C)C(F)(F)F)c1 [Alpelisib] (partner 2 µM)
# Summary of the method: as §1
# Axitinib + AZD7762 = compound: CNC(=O)c1ccccc1Sc1ccc2c(/C=C/c3ccccn3)n[nH]c2c1 [Axitinib] + NC(=O)Nc1cc(-c2cccc(F)c2)sc1C(=O)N[C@H]1CCCNC1 [AZD7762] (partner 0.2 µM)
# Summary of the method: as §1
# Axitinib + Bortezomib = compound: CNC(=O)c1ccccc1Sc1ccc2c(/C=C/c3ccccn3)n[nH]c2c1 [Axitinib] + CC(C)C[C@H](NC(=O)[C@H](Cc1ccccc1)NC(=O)c1cnccn1)B(O)O [Bortezomib] (partner 0.002 µM)
# Summary of the method: as §1
cell line,measurement,setting,value
NCI-H650,relative viability,[1]; first compound 3.162 µM,0.904
same,relative viability,[1]; first compound 10 µM,0.801
same,relative viability,[1]; first compound 31.62 µM,0.607
same,relative viability,[1]; first compound 100 µM,0.773
same,relative viability,Bemcentinib + Alpelisib; first compound 0.04 µM,1.01
same,relative viability,Bemcentinib + Alpelisib; first compound 0.1265 µM,1.38
same,relative viability,Bemcentinib + Alpelisib; first compound 0.4 µM,1.22
same,relative viability,Bemcentinib + Alpelisib; first compound 1.265 µM,0.974
same,relative viability,Bemcentinib + Alpelisib; first compound 4 µM,1.06
same,relative viability,Axitinib + AZD7762; first compound 0.005 µM,1.08
same,relative viability,Axitinib + AZD7762; first compound 0.01581 µM,0.978
same,relative viability,Axitinib + AZD7762; first compound 0.05 µM,1.08
same,relative viability,Axitinib + AZD7762; first compound 0.1581 µM,1.11
same,relative viability,Axitinib + AZD7762; first compound 0.5 µM,0.862
same,relative viability,Axitinib + Bortezomib; first compound 0.005 µM,0.739
same,relative viability,Axitinib + Bortezomib; first compound 0.01581 µM,0.944
same,relative viability,Axitinib + Bortezomib; first compound 0.05 µM,0.683
same,relative viability,Axitinib + Bortezomib; first compound 0.1581 µM,0.7
same,relative viability,Axitinib + Bortezomib; first compound 0.5 µM,0.816
